Experimental data as given in patent publication US10703751B2, “Amino-imidazopyridine derivatives as Janus kinase inhibitors and pharmaceutical use thereof” (LEO Pharma A/S, priority 2017, dated 2020).
“Also recorded” adds a separate entry of the source. Like-named read-outs stand apart in the source and are kept apart here. Values belong to the compound of their own block, whether it stands above or below them.

Key:
[1] = biological target: JAK3 (Homo sapiens (Human), UniProt P52333); assay: JAK3 kinase assay (HTRF); format: biochemical
Experimental: Human baculovirus-expressed Janus kinase (JAK) 1, 2, 3 and tyrosin kinase (TYK) 2 were purchased from Carna Biosciences, Inc (#08-144, -045, -046, -147 resp.). All four purified enzymes contain only the catalytic domain. JAK1 (aa 850-1154) and TYK2 (aa 871-1187) are expressed with an N-terminally fused GST-tag, and JAK2 and JAK3 with an N-terminally fused His-tag. Inhibition of phosphorylation of a synthetic peptide was measured in an HTRF-based assay (CisBio #62TKOPEC). First, 75 nL of test compound solution (100% DMSO) was added to a white shallow 384-well plate (NUNC #264706) using a Labcyte ECHO 550 liquid handler. Thereafter, 1 μL of compound dilution buffer (50 mM HEPES, 0.05% bovine serum albumin) and 2 μL of TK solution (TK substrate-biotin in kinase buffer [1× enzymatic buffer from HTRFKinEASE TK kit, 1 mM DTT]) was added. Then, 5 μL kinase-ATP mix (prepared in kinase buffer) was added to the wells and the plates were incubated at RT for 20 (JAK2, 3 and TYK2) to 40 (JAK1) min. For all four kinases a concentration of ATP that corresponded to the Km for ATP was used. The final concentrations of buffers, substrate, kinase and ATP were: JAK1: 50 mM Hepes buffer pH 7.0, 0.01% BSA, 10 mM MgCl2, 1 mM DTT, 7 μM ATP, 50 nM SEB, 1 μM TK Substrate-Biotin and 5 ng/well JAK1; JAK2: 50 mM Hepes buffer pH 7.0, 0.01% BSA, 5 mM MgCl2, 1 mM DTT, 4 μM ATP, 1 μM TK Substrate-Biotin and 0.1 ng/well JAK2; JAK3: 50 mM Hepes buffer pH 7.0, 0.01% BSA, 5 mM MgCl2, 1 mM DTT, 2 μM ATP, 1 μM TK Substrate-Biotin and 0.3 ng/well JAK3; TYK2: 50 mM Hepes buffer pH 7.0, 0.01% BSA, 5 mM MgCl2, 1 mM DTT, 13 μM ATP, 50 nM SEB, 1 μM TK Substrate-Biotin and 0.8 ng/well TYK2. Thereafter, the kinase reaction was stopped by adding 4 μL detection mix (final concentrations: 50 mM Hepes buffer pH 7.0, 0.01% BSA, 0.8 M KF, 20 mM EDTA, 42 nM Streptavidin-XL665 and 1:400 STK Ab Cryptate) and the plates were incubated overnight in the dark. A PerkinElmer Envision reader was used to quantify the HTRF signal using the following filters; 320 nm excitation filter, 665 nm emission filter and a 615 nm 2nd emission filter. A ratio ((665/615)×10^4) was calculated for each well.

[2] = test system: STAT6 bla-RA1 cells; assay: STAT6 assay (IL-4 stimulated reporter cells); format: cell-based; conditions: for EC50: interleukin 4 10 ng/mL; for STAT5/STAT6 EC50 ratio (selectivity for STAT6 over STAT5): selectivity for STAT6 over STAT5, from EC50
Experimental: Twenty-five μL of a STAT6 bla-RA1 (Invitrogen # K1243) cell suspension was seeded with a density of 30-40,000 cells/well in 384-well Black View-plates (PerkinElmer #6007460) with clear bottom in assay medium (Opti-MEM (Invitrogen #11058-021)+0.5% heat inactivated fetal bovine Serum (Invitrogen #10082-147)+1% non-essential amino acids (Invitrogen #11140-050)+1% sodium pyruvate (Invitrogen #11360-070)+1% penicillin/streptomycin (Invitrogen #15140-122)); containing 550 ng/mL of CD40 ligand (Invitrogen # PHP0025). The cell plates were incubated overnight in a humidified 37° C. air/CO2 (95%/5%) incubator. The following day, 125 nL of solutions of test compounds and reference compounds were transferred to cell plates using the Labcyte Echo 550 liquid handler. The plates were then incubated for 1 h in a humidified 37° C. air/CO2 (95%/5%) incubator. Hereafter recombinant human interleukin 4 (Invitrogen # PHC0045) were added to the plates also using the Labcyte Echo 550 to a final concentration of 10 ng/mL. The cells were then incubated for 4½-5 h in a humidified 37° C. air/CO2 (95%/5%) incubator. 8 μL of LiveBLAzer substrate mixture (Invitrogen # K1095) were then added to the assay plates, which were incubated overnight at RT. Fluorescence was then measured: Excitation: 405 nm; Emission: 460 nm (green channel), Emission: 535 nm (blue channel). Background was subtracted in both emission channels and the ratio 460/535 nm was calculated for each well.

[3] = biological target: panel of 23 Tyrosine kinases, including JAK1, and 68 Serine and Threonine kinases; assay: Kinase selectivity panel at CARNA Biosciences; format: biochemical; conditions: inhibitor concentration approximately 1000 times JAK1 EC50
Experimental: The kinase selectivity profiles of Example 3 of the present invention as well as Examples 644 and 641 of WO2011086053 were evaluated at CARNA Biosciences Inc. with a panel consisting of 23 Tyrosine kinases, including JAK1 (ABL, CSK, EGFR, EPHA2, EPHB1, EPHB4, FGFR1, FLT3, IGF1R, ITK, JAK1, JAK3, KDR, […], PDGFRα, PDGFRβ, PYK2, SRC, TIE2, TRKA and TYRO3) as well as 68 Serine and Threonine kinases ([…], AKT1, AMPKα1/β1/γ1, AurA, AurB, AurC, BRSK2 ([ATP]=Km value), CaMK1a ([ATP]=Km value), CaMK2a ([ATP]=Km value), CaMK4, CDC2/CycB1, CDC7/ASK, CDK2/CycA2, CDK2/CyE1, CDK3/CyE1 ([ATP]=Km value), CDK4/CyD3, CDK6/CyD3, CDK7/CycH/MAT1, CDK9/CycT1, CHK1, CK1ε, CK2α1/β, CK2α2/β, CLK1, CLK2, DAPK1, DYRK1B, Erk2, GSK3α, GSK3β, HGK, IKKβ, IRAK4 ([ATP]=Km value), JNK2, LOK ([ATP]=Km value), MAPKAP2, MLK1, MLK2, MNK2 ([ATP]=Km value), MST1, MST2 ([ATP]=Km value), NEK1, NEK2, NEK6, NEK7, NEK9, p38α, p70S6K, PAK1 ([ATP]=Km value), PAK2, PAK5 ([ATP]=Km value), PBK, PDK1, PIM1, PIM2, PKACα, PKCα, OKD2, PKN1 ([ATP]=Km value), PLK1, PLK2 ([ATP]=Km value), ROCK1, RSK1, SGK, skMLCK ([ATP]=Km value) and TSSK1). […] The percentage of inhibition was measured at an inhibitor concentration of approximately 1000 times JAK1 EC50.

Sequence of JAK3 (P52333 822-1111): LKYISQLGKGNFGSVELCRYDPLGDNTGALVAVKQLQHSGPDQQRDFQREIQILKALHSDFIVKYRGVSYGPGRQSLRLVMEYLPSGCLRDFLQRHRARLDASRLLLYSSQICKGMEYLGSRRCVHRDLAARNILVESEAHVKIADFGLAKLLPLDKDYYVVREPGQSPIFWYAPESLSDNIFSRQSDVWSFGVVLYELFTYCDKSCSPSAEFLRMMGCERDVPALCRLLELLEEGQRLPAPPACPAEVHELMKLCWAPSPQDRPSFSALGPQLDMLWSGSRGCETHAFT

Structure (SMILES): CNc1cc2c(cn1)nc([C@@H](C)O)n2[C@H]1CC[C@H](CC#N)CC1 [Example 3, trans-2-[4-[2-[(1R)-1-Hydroxyethyl]-6-(methylamino)imidazo[4,5-c]pyridin-1-yl]cyclohexyl]acetonitrile]
EC50 ([1]; ATP at Km (2 μM)): 1700 nM
EC50 [2]: 94.5 nM
STAT5/STAT6 EC50 ratio (selectivity for STAT6 over STAT5) [2]: 68
Kinases of the panel inhibited by 50% or more (summary) [3]: none of the tested kinases except JAK1 were inhibited by more than 50%
Tyrosine kinases inhibited by 50% or more at an ATP concentration of 1 mM (n ≥ 2) [3]: JAK1

EC50 [1]: 739 nM
EC50 [2]: 178 nM
STAT5/STAT6 EC50 ratio (selectivity for STAT6 over STAT5) [2]: 32
Structure (SMILES): C[C@@H](O)c1nc2cnc3[nH]ccc3c2n1[C@H]1CC[C@H](C#N)CC1 [Example 641 of WO2011086053]
Kinases of the panel inhibited by 50% or more (summary) [3]: inhibited nine other kinases besides JAK1 by 50% or more
Serine and Threonine kinases inhibited by 50% or more (n ≥ 2) [3]: BRSK2, [ATP] = 50 μM; also recorded: LOK, [ATP] = 100 μM; also recorded: MST1, [ATP] = 1 mM; also recorded: MST2, [ATP] = 75 μM; also recorded: PKN1, [ATP] = 25 μM
Tyrosine kinases inhibited by 50% or more at an ATP concentration of 1 mM (n ≥ 2) [3]: JAK1 and FGFR1 and FLT3 and KDR and PDGFRα

Structure (SMILES): C[C@@H](O)c1nc2cnc3[nH]ccc3c2n1[C@H]1CC[C@H](CC#N)CC1 [Example 644 of WO2011086053]
EC50 ([1]; ATP at Km (2 μM)): 13.1 nM
EC50 [2]: 10.5 nM
Kinases of the panel inhibited by 50% or more (summary) [3]: inhibited nine other kinases besides JAK1 by 50% or more
Serine and Threonine kinases inhibited by 50% or more (n ≥ 2) [3]: BRSK2, [ATP] = 50 μM; also recorded: LOK, [ATP] = 100 μM; also recorded: MST2, [ATP] = 75 μM; also recorded: PKN1, [ATP] = 25 μM
Tyrosine kinases inhibited by 50% or more at an ATP concentration of 1 mM (n ≥ 2) [3]: JAK1 and FGFR1 and FLT3 and KDR and PDGFRα and PDGFRβ
